Measured values: patent publication US8217176B2, “Fused heterocyclic derivative and use thereof” (Takeda Pharmaceutical Company Limited, priority 2008, dated 2012)
Where a name gives a salt, the structure may show the parent alone.

Tested on: NIH-3T3/Gli reporter cells
Assay: Evaluation of compound: Shh-N-induced luciferase activity in NIH-3T3/Gli reporter cells (Smo inhibitory action)
Type: cell-based
Conditions: 48 hr; for inhibition at 1 µM: NIH3T3, 1 μM compound, mouse Shh-N end fragment supernatant, read-out: inhibition rate (%) at 1 μM; for IC50: NIH3T3, mouse Shh-N end fragment supernatant, read-out: IC50 value (compound concentration necessary for achieving 50% of the maximum value of inhibition rate)
Description: HEK293 cells were grown in D-MEM medium (Invitrogen) containing 10% fetal bovine serum in a 10 cm dish and pcDNA3.1/mShh-N was introduced into the cells using FuGENE6 (Roche Applied Science). Thereafter, the HEK293 cells were cultured in a carbon dioxide gas incubator at 37° C. for 24 hours, and the medium was exchanged with D-MEM medium (Invitrogen) containing 2% fetal bovine serum. After culturing for 48 hr, a culture supernatant containing recombinant type mouse Shh-N end fragment was obtained by filtration using a filter ([…]).
Using D-MEM (Invitrogen) containing 10% fetal bovine serum, expression plasmid pcDNA3.1 and Gli reporter plasmid (pGL3/δ-cry promoter, 8×Gli binding site) produced by the method of Experimental Example 1 were introduced into NIH-3T3 cells grown in a 10 cm dish by the use of FuGENE6 (Roche Applied Science).
After culture for 24 hr, the cells were recovered, suspended in D-MEM medium containing 10% fetal bovine serum and supplemented with Geneticin (Life Technologies Oriental, Inc.) to a final concentration of 500 μg/ml, diluted to 10^4 cells/ml, plated on a 96 well plate, and cultured in a carbon dioxide gas incubator at 37° C. to give Geneticin resistant transformed cell line.
The obtained transformed cell line was cultured in a 96 well plate, mouse Shh-N end fragment obtained in Experimental Example 3 was added, and NIH-3T3/Gli reporter cell, which is a cell line capable of induction of luciferase expression, was selected.
NIH-3T3/Gli reporter cells cultured in D-MEM (Invitrogen) containing 10% fetal bovine serum were plated in a 96 well white plate at 1×10^4 cells/well, and cultured overnight in a carbon dioxide gas incubator at 37° C. The medium was removed, a compound (50 μl) and culture supernatant of mouse Shh-N end fragment-expressing HEK293 (D-MEM medium containing 2% fetal bovine serum, 50 μl) were added, and the cells were cultured for 48 hr in a carbon dioxide gas incubator at 37° C. Bright-Glo (Promega, 50 μl) was added, and the mixture was stirred, after which luciferase activity was measured by EnVision (PerkinElmer). The inhibition rate was calculated based on the luciferase activity of the control without addition of the compound as 100. The concentration of the compound and the inhibition rate were analyzed by PRISM3.00 (software of GraphPad), based on which the IC50 value (compound concentration necessary for achieving 50% of the maximum value of inhibition rate) of the compound was calculated.

CCCc1cc2c(c(OCC)c(C(=O)NC3CCN(C(=O)CO)CC3)n2C)c(=O)n1CC(=O)c1ccccc1 [Example 141, 3-ethoxy-N-[1-(hydroxyacetyl)piperidin-4-yl]-1-methyl-4-oxo-5-(2-oxo-2-phenylethyl)-6-propyl-4,5-dihydro-1H-pyrrolo[3,2-c]pyridine-2-carboxamide]
inhibition at 1 µM: 100%

CCOc1c(C(=O)N(C)CCN(CC)CC)sc2c1c(=O)n(CC(=O)c1ccccc1)c1ccccc21 [Example 45, N-[2-(diethylamino)ethyl]-3-ethoxy-N-methyl-4-oxo-5-(2-oxo-2-phenylethyl)-4,5-dihydrothieno[3,2-c]quinoline-2-carboxamide hydrochloride]
inhibition at 1 µM: 100% | IC50: ≤ 1000 nM

CCc1cc2c(c(OCCF)c(C(=O)NC3CCN(C(=O)CO)CC3)n2C)c(=O)n1CC(=O)c1ccccc1 [Example 142, 6-ethyl-3-(2-fluoroethoxy)-N-[1-(hydroxyacetyl)piperidin-4-yl]-1-methyl-4-oxo-5-(2-oxo-2-phenylethyl)-4,5-dihydro-1H-pyrrolo[3,2-c]pyridine-2-carboxamide]
inhibition at 1 µM: 100%

CCOc1c(C(=O)NCCN2CCCC2)sc2c1c(=O)n(CC(=O)c1ccccc1)c1ccccc21 [Example 43, 3-ethoxy-4-oxo-5-(2-oxo-2-phenylethyl)-N-(2-pyrrolidin-1-ylethyl)-4,5-dihydrothieno[3,2-c]quinoline-2-carboxamide]
inhibition at 1 µM: 100% | IC50: ≤ 1000 nM

CCc1cc2c(c(OCC(F)(F)F)c(C(=O)NC3CCN(C(=O)CO)CC3)n2C)c(=O)n1CCc1ccccc1 [Example 661, 6-ethyl-N-[1-(hydroxyacetyl)piperidin-4-yl]-1-methyl-4-oxo-5-(2-phenylethyl)-3-(2,2,2-trifluoroethoxy)-4,5-dihydro-1H-pyrrolo[3,2-c]pyridine-2-carboxamide]
inhibition at 1 µM: 100%

CCN(CC)CCN(C)C(=O)c1c(OC)c2c(=O)n(CC(=O)c3ccccc3)c3ccccc3c2n1C [Example 56, N-[2-(diethylamino)ethyl]-3-methoxy-N,1-dimethyl-4-oxo-5-(2-oxo-2-phenylethyl)-4,5-dihydro-1H-pyrrolo[3,2-c]quinoline-2-carboxamide hydrochloride]
inhibition at 1 µM: 100% | IC50: ≤ 1000 nM

COc1c(C(=O)NC2CCN(c3ccncc3)CC2)n(C)c2c1c(=O)n(CC(=O)c1ccccc1)c1ccccc21 [Example 563, 3-methoxy-1-methyl-4-oxo-5-(2-oxo-2-phenylethyl)-N-(1-pyridin-4-ylpiperidin-4-yl)-4,5-dihydro-1H-pyrrolo[3,2-c]quinoline-2-carboxamide]
inhibition at 1 µM: 100%

CCc1cc2c(c(OCC(F)(F)F)c(C(=O)NC3CCN(C(=O)CO)CC3)n2C)c(=O)n1Cc1ccccc1 [Example 654, 5-benzyl-6-ethyl-N-[1-(hydroxyacetyl)piperidin-4-yl]-1-methyl-4-oxo-3-(2,2,2-trifluoroethoxy)-4,5-dihydro-1H-pyrrolo[3,2-c]pyridine-2-carboxamide]
inhibition at 1 µM: 100%

COc1c(C(=O)NC2CCN(C(=O)CO)CC2)n(C)c2c1c(=O)n(CC(=O)c1ccccc1)c1ccc(F)cc21 [Example 584, 8-fluoro-N-[1-(hydroxyacetyl)piperidin-4-yl]-3-methoxy-1-methyl-4-oxo-5-(2-oxo-2-phenylethyl)-4,5-dihydro-1H-pyrrolo[3,2-c]quinoline-2-carboxamide]
inhibition at 1 µM: 100%

CCN(CC)CCN(C)C(=O)c1sc2c(c1OC)c(=O)n(CCOc1ccccc1)c1ccccc21 [Example 51, N-[2-(diethylamino)ethyl]-3-methoxy-N-methyl-4-oxo-5-(2-phenoxyethyl)-4,5-dihydrothieno[3,2-c]quinoline-2-carboxamide]
inhibition at 1 µM: 100% | IC50: ≤ 1000 nM

CCOC(=O)Cn1c(=O)c2c(OC)c(C(=O)N(C)CCN(CC)CC)sc2c2ccccc21 [Example 53, ethyl [2-{[2-(diethylamino)ethyl](methyl)carbamoyl}-3-methoxy-4-oxothieno[3,2-c]quinolin-5(4H)-yl]acetate]
inhibition at 1 µM: 95% | IC50: ≤ 1000 nM

CCOc1c(C(=O)NC2CCN(CCO)CC2)n(C)c2cc(C)n(CC(=O)c3ccccc3)c(=O)c12 [Example 138, 3-ethoxy-N-[1-(2-hydroxyethyl)piperidin-4-yl]-1,6-dimethyl-4-oxo-5-(2-oxo-2-phenylethyl)-4,5-dihydro-1H-pyrrolo[3,2-c]pyridine-2-carboxamide]
inhibition at 1 µM: 100%

COc1c(C(=O)N[C@H]2CC[C@H](O)CC2)n(C)c2c1c(=O)n(CC(=O)c1ccccc1)c1ccccc21 [Example 118, N-(trans-4-hydroxycyclohexyl)-3-methoxy-1-methyl-4-oxo-5-(2-oxo-2-phenylethyl)-4,5-dihydro-1H-pyrrolo[3,2-c]quinoline-2-carboxamide]
inhibition at 1 µM: 100%

CCN(CC)CCN(C)C(=O)c1sc2c(c1OC)c(=O)n(CC1CC1)c1ccccc21 [Example 41, 5-(cyclopropylmethyl)-N-[2-(diethylamino)ethyl]-3-methoxy-N-methyl-4-oxo-4,5-dihydrothieno[3,2-c]quinoline-2-carboxamide]
inhibition at 1 µM: 100% | IC50: ≤ 1000 nM

CCN(CC)CCN(C)C(=O)c1sc2c(c1OC)c(=O)n(Cc1ccccn1)c1ccccc21 [Example 3, N-[2-(diethylamino)ethyl]-3-methoxy-N-methyl-4-oxo-5-(pyridin-2-ylmethyl)-4,5-dihydrothieno[3,2-c]quinoline-2-carboxamide ditrifluoroacetate]
inhibition at 1 µM: 100% | IC50: ≤ 1000 nM

COc1c(C(=O)NC(C)CN(C)C)n(C)c2c1c(=O)n(CC(=O)c1ccccc1)c1ccccc21 (stereo not drawn) [Example 92, N-[2-(dimethylamino)-1-methylethyl]-3-methoxy-1-methyl-4-oxo-5-(2-oxo-2-phenylethyl)-4,5-dihydro-1H-pyrrolo[3,2-c]quinoline-2-carboxamide]
inhibition at 1 µM: 100% | IC50: ≤ 1000 nM

CCc1cc2c(c(OCC(F)(F)F)c(C(=O)NC3CCN(C(=O)CO)CC3)n2C)c(=O)n1CC(=O)c1cccc(OC)c1 [Example 656, 6-ethyl-N-[1-(hydroxyacetyl)piperidin-4-yl]-5-[2-(3-methoxyphenyl)-2-oxoethyl]-1-methyl-4-oxo-3-(2,2,2-trifluoroethoxy)-4,5-dihydro-1H-pyrrolo[3,2-c]pyridine-2-carboxamide]
inhibition at 1 µM: 100%

CCN(CC)CCN(C)C(=O)c1sc2c(c1OC)c(=O)n(CC(=O)Nc1ccccc1)c1ccccc21 [Example 52, N-[2-(diethylamino)ethyl]-3-methoxy-N-methyl-4-oxo-5-[2-oxo-2-(phenylamino)ethyl]-4,5-dihydrothieno[3,2-c]quinoline-2-carboxamide hydrochloride]
inhibition at 1 µM: 95% | IC50: ≤ 1000 nM

COc1c(C(=O)NCC2CCCN(CCO)C2)n(C)c2c1c(=O)n(CC(=O)c1ccccc1)c1ccccc21 (stereo not drawn) [Example 102, N-{[1-(2-hydroxyethyl)piperidin-3-yl]methyl}-3-methoxy-1-methyl-4-oxo-5-(2-oxo-2-phenylethyl)-4,5-dihydro-1H-pyrrolo[3,2-c]quinoline-2-carboxamide]
inhibition at 1 µM: 80% | IC50: ≤ 1000 nM

CCN(CC)CCN(C)C(=O)c1sc2c(c1OC)c(=O)n(CC(=O)C(C)(C)C)c1ccccc21 [Example 50, N-[2-(diethylamino)ethyl]-5-(3,3-dimethyl-2-oxobutyl)-3-methoxy-N-methyl-4-oxo-4,5-dihydrothieno[3,2-c]quinoline-2-carboxamide]
inhibition at 1 µM: 100% | IC50: ≤ 1000 nM

CCc1cc2c(c(OC(C)C)c(C(=O)NC3CCN(C(=O)CO)CC3)n2C)c(=O)n1CC(=O)c1ccccc1 [Example 522, 6-ethyl-N-[1-(hydroxyacetyl)piperidin-4-yl]-1-methyl-3-(1-methylethoxy)-4-oxo-5-(2-oxo-2-phenylethyl)-4,5-dihydro-1H-pyrrolo[3,2-c]pyridine-2-carboxamide]
inhibition at 1 µM: 100%

CCCOc1c(C(=O)NC2CCN(C(=O)CO)CC2)n(C)c2cc(CC)n(CC(=O)c3ccccc3)c(=O)c12 [Example 510, 6-ethyl-N-[1-(hydroxyacetyl)piperidin-4-yl]-1-methyl-4-oxo-5-(2-oxo-2-phenylethyl)-3-propoxy-4,5-dihydro-1H-pyrrolo[3,2-c]pyridine-2-carboxamide]
inhibition at 1 µM: 100%
